Strand notation (5' to 3'): a small letter for the sugar, then the base; units joined by * are phosphorothioate-linked, units joined directly phosphodiester-linked; [ ] holds rarer units or linkages, { } end groups; capitals alone tell only the bases. e = 2'-O-(2-methoxyethyl) (MOE); k = constrained ethyl (cEt); [5mC] = 5-methylcytosine; d = 2'-deoxy (DNA)
System: human PKK mRNA
Experiment: Antisense inhibition of human PKK mRNA in HepaRG cells, 1,000 nM, MOE/deoxy/cEt oligonucleotides (Example 3)
Assay type: cell-based
Summary of the method: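 HepaRG cells at 20,000 per well electroporated with 1,000 nM 16-mer MOE/cEt/deoxy gapmers (phosphorothioate, 5-methylcytosine). After about 24 h, PKK mRNA measured by qRT-PCR with primer probe set RTS3454, normalized to RIBOGREEN total RNA. Reported as percent inhibition versus untreated cells.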

[1] = HepaRG cells, electroporation with 1,000 nM antisense oligonucleotide, approx. 24 hours, PKK mRNA by RT-PCR (RTS3454), relative to untreated control cells, Table 26 experiment
[2] = HepaRG cells, electroporation with 1,000 nM antisense oligonucleotide, approx. 24 hours, PKK mRNA by RT-PCR (RTS3454), relative to untreated control cells, Table 25 experiment
[3] = PKK mRNA, HepaRG cells, 1,000 nM antisense oligonucleotide, Table 31
[4] = Table 28, HepaRG cells, 1,000 nM antisense oligonucleotide, human PKK mRNA
[5] = HepaRG cells, electroporation with 1,000 nM antisense oligonucleotide, approximately 24 hours, primer probe set RTS3454, relative to untreated control cells, experiment of Table 24
[6] = Table 27, HepaRG cells, 1,000 nM antisense oligonucleotide, human PKK mRNA
[7] = HepaRG cells, 1,000 nM antisense oligonucleotide, Table 29
[8] = HepaRG cells, electroporation with 1,000 nM antisense oligonucleotide, approximately 24 hours, primer probe set RTS3454, relative to untreated control cells, experiment of Table 23
[9] = Table 30, human PKK mRNA, HepaRG cells, 1,000 nM antisense oligonucleotide
[10] = Table 21 experiment, HepaRG cells, electroporation with 1,000 nM antisense oligonucleotide, approx. 24 hours, PKK mRNA by RT-PCR (RTS3454), relative to untreated control cells
[11] = Table 19, HepaRG cells, electroporation with 1,000 nM antisense oligonucleotide, approximately 24 hours, PKK mRNA by RT-PCR (RTS3454), relative to untreated control cells

“548269 (antisense eA*eG*k[5mC]*dA*d[5mC]*dA*d[5mC]*dA*dA*dT*dT*dA*d[5mC]*kT*kG*eG) [compound 548269]” was tested, and the “% inhibition” value [1] was 62%.

For “548182 (eA*eG*kT*d[5mC]*dA*dT*dG*dG*dA*dG*dA*dT*d[5mC]*kT*k[5mC]*eA; antisense) [compound 548182]”, the “% inhibition” value [2] was 55%.

In the case of “548660 (antisense eA*eT*kG*d[5mC]*dT*dT*dA*d[5mC]*d[5mC]*dT*dT*dT*d[5mC]*kT*k[5mC]*e[5mC]) [compound 548660]”, the “% inhibition” value [3] is reported as 0%.

“548501 (antisense e[5mC]*eA*kA*dG*d[5mC]*d[5mC]*dA*d[5mC]*dT*dA*dA*d[5mC]*d[5mC]*k[5mC]*kA*e[5mC]) [compound 548501]” was tested, and the “% inhibition” value [4] was 33%.

For “548499 (antisense eA*eT*kA*d[5mC]*d[5mC]*d[5mC]*dG*dG*dA*dG*dT*d[5mC]*dA*kG*kG*eA) [compound 548499]”, the “% inhibition” value [4] was 56%.

“548160 (eT*e[5mC]*kG*d[5mC]*dA*dT*dT*dG*dT*d[5mC]*dA*dG*d[5mC]*k[5mC]*k[5mC]*e[5mC]; antisense) [compound 548160]” was tested, and the “% inhibition” value [2] was 60%.

In the case of “548062 (eA*eT*kA*dA*dA*dT*dT*dG*dT*dG*d[5mC]*dT*dT*kG*kT*eG; antisense) [compound 548062]”, the “% inhibition” value [5] is reported as 19%.

For “548302 (eG*e[5mC]*k[5mC]*dA*dT*dT*dT*dT*dA*dT*d[5mC]*d[5mC]*d[5mC]*kT*kG*eA; antisense) [compound 548302]”, the “% inhibition” value [1] was 71%.

For “548358 (antisense eA*eT*kT*dT*dG*dG*dG*d[5mC]*d[5mC]*dT*dA*dG*dT*kG*kG*eT) [compound 548358]”, the “% inhibition” value [6] was 0%.

In the case of “548037 (eA*eA*kT*dG*dT*d[5mC]*dT*dG*dA*d[5mC]*dA*dG*dA*kT*kT*eT; antisense) [compound 548037]”, the “% inhibition” value [5] is reported as 70%.

“548494 (antisense eT*eG*kT*dG*dA*d[5mC]*d[5mC]*d[5mC]*d[5mC]*d[5mC]*d[5mC]*dA*d[5mC]*k[5mC]*kG*e[5mC]) [compound 548494]” was tested, and the “% inhibition” value [4] was 39%.

With “548493 (antisense e[5mC]*e[5mC]*kA*d[5mC]*d[5mC]*dG*d[5mC]*dT*dG*d[5mC]*d[5mC]*d[5mC]*dG*k[5mC]*k[5mC]*eA) [compound 548493]” the “% inhibition” value [4] was 37%.

In the case of “548208 (e[5mC]*eT*k[5mC]*dT*dG*dG*dT*d[5mC]*dA*dA*dT*d[5mC]*dT*kG*kA*e[5mC]; antisense) [compound 548208]”, the “% inhibition” value [2] is reported as 19%.

With “548608 (antisense eA*eT*k[5mC]*dG*dG*dT*dG*dG*dT*dG*dG*dG*dA*kT*kT*eG) [compound 548608]” the “% inhibition” value [7] was 25%.

In the case of “548307 (eT*eT*k[5mC]*dT*dG*d[5mC]*dA*dA*d[5mC]*dT*dG*dA*dG*k[5mC]*k[5mC]*eT; antisense) [compound 548307]”, the “% inhibition” value [6] is reported as 6%.

In the case of “548245 (e[5mC]*e[5mC]*kA*dT*dG*d[5mC]*dA*dT*dA*d[5mC]*dT*d[5mC]*dG*k[5mC]*k[5mC]*eT; antisense) [compound 548245]”, the “% inhibition” value [1] is reported as 31%.

With “548325 (e[5mC]*e[5mC]*k[5mC]*dA*d[5mC]*dT*dG*dA*d[5mC]*dT*dG*dA*d[5mC]*kT*kA*e[5mC]; antisense) [compound 548325]” the “% inhibition” value [6] was 27%.

With “547991 (antisense eT*eA*k[5mC]*dA*dG*dT*d[5mC]*dT*dT*d[5mC]*dT*dG*dG*kG*kA*eG) [compound 547991]” the “% inhibition” value [8] was 0%.

“548587 (eT*eT*k[5mC]*dT*dG*dG*dG*dA*dA*dA*d[5mC]*dT*d[5mC]*kT*k[5mC]*eT; antisense) [compound 548587]” was tested, and the “% inhibition” value [7] was 45%.

With “548323 (e[5mC]*eT*kG*dT*dT*dG*d[5mC]*d[5mC]*dT*dG*dA*d[5mC]*dA*kT*kG*e[5mC]; antisense) [compound 548323]” the “% inhibition” value [6] was 43%.

In the case of “548272 (antisense eG*eG*kT*dG*d[5mC]*d[5mC]*dA*d[5mC]*dT*dT*dG*d[5mC]*dT*kT*kG*eG) [compound 548272]”, the “% inhibition” value [1] is reported as 54%.

For “548374 (eG*e[5mC]*kA*d[5mC]*d[5mC]*d[5mC]*dT*dT*dT*dT*d[5mC]*dA*dT*kT*kG*eA; antisense) [compound 548374]”, the “% inhibition” value [6] was 41%.

In the case of “548619 (antisense eG*eG*kT*dT*dG*dG*dT*dG*dG*d[5mC]*dG*dG*dG*kA*kT*e[5mC]) [compound 548619]”, the “% inhibition” value [3] is reported as 19%.

“548335 (antisense eT*eA*kG*d[5mC]*dA*dT*d[5mC]*dA*dT*dG*d[5mC]*d[5mC]*dA*k[5mC]*kA*eG) [compound 548335]” was tested, and the “% inhibition” value [6] was 51%.

With “548403 (eG*eA*kG*dT*dA*d[5mC]*dA*dT*dT*dG*dG*dG*d[5mC]*k[5mC]*k[5mC]*eA; antisense) [compound 548403]” the “% inhibition” value [9] was 25%.

With “548223 (eT*eA*kG*dA*d[5mC]*d[5mC]*d[5mC]*dA*dG*dA*dA*dT*d[5mC]*kA*kT*eG; antisense) [compound 548223]” the “% inhibition” value [2] was 50%.

In the case of “548401 (eG*e[5mC]*k[5mC]*dA*dG*d[5mC]*dT*dA*dT*dG*dG*dG*dA*kA*k[5mC]*eA; antisense) [compound 548401]”, the “% inhibition” value [9] is reported as 71%.

In the case of “548232 (eG*e[5mC]*k[5mC]*dA*dT*dA*d[5mC]*dA*dT*d[5mC]*dT*dG*dA*kG*kG*eA; antisense) [compound 548232]”, the “% inhibition” value [1] is reported as 3%.

“548430 (antisense e[5mC]*e[5mC]*kT*dA*dT*dA*dA*d[5mC]*dT*dA*dT*dA*dA*k[5mC]*kA*eG) [compound 548430]” was tested, and the “% inhibition” value [9] was 21%.

“548237 (eG*eT*kA*dT*dA*d[5mC]*dA*dT*d[5mC]*dT*dA*dG*dA*kT*kG*eA; antisense) [compound 548237]” was tested, and the “% inhibition” value [1] was 22%.

With “548637 (antisense eG*e[5mC]*kT*dG*dA*dT*d[5mC]*dT*dT*d[5mC]*dT*dA*dA*kT*kG*e[5mC]) [compound 548637]” the “% inhibition” value [3] was 38%.

For “547819 (e[5mC]*eA*kT*dT*dG*dA*dT*dT*dG*dA*dA*d[5mC]*dT*kT*kG*e[5mC]; antisense) [compound 547819]”, the “% inhibition” value [10] was 11%.

In the case of “548258 (antisense e[5mC]*eA*kA*dG*dT*dG*d[5mC]*dT*d[5mC]*d[5mC]*d[5mC]*d[5mC]*dA*kT*kG*e[5mC]) [compound 548258]”, the “% inhibition” value [1] is reported as 0%.

For “548088 (antisense eA*eA*k[5mC]*dT*dA*dA*dG*dG*dG*dA*d[5mC]*d[5mC]*dA*k[5mC]*k[5mC]*eT) [compound 548088]”, the “% inhibition” value [11] was 27%.

“547786 (antisense eA*eG*kT*dT*dG*d[5mC]*dT*dT*dG*d[5mC]*dT*dT*dG*kA*kA*eT) [compound 547786]” was tested, and the “% inhibition” value [10] was 44%.

For “547939 (eT*eT*kT*dG*dT*dG*dA*d[5mC]*dT*d[5mC]*dG*dA*dT*kT*kT*eT; antisense) [compound 547939]”, the “% inhibition” value [8] was 70%.

“548281 (antisense eG*eG*kT*dT*dG*dA*dG*dG*dG*dA*d[5mC]*dA*dG*kA*k[5mC]*eA) [compound 548281]” was tested, and the “% inhibition” value [1] was 0%.

For “548162 (e[5mC]*e[5mC]*kT*d[5mC]*dG*d[5mC]*dA*dT*dT*dG*dT*d[5mC]*dA*kG*k[5mC]*e[5mC]; antisense) [compound 548162]”, the “% inhibition” value [2] was 25%.

In the case of “547944 (eA*e[5mC]*kT*dT*dG*dG*dT*dG*dT*dG*d[5mC]*d[5mC]*dA*k[5mC]*kT*eT; antisense) [compound 547944]”, the “% inhibition” value [8] is reported as 54%.

“548524 (antisense eG*e[5mC]*k[5mC]*d[5mC]*dG*dA*dT*d[5mC]*dA*d[5mC]*d[5mC]*dT*dT*kA*kG*eA) [compound 548524]” was tested, and the “% inhibition” value [4] was 45%.

For “547890 (eT*eT*kG*dT*dT*d[5mC]*d[5mC]*dG*dG*dT*dA*d[5mC]*dT*k[5mC]*kT*eG; antisense) [compound 547890]”, the “% inhibition” value (Table 20, HepaRG cells, electroporation with 1,000 nM antisense oligonucleotide, approximately 24 hours, PKK mRNA by RT-PCR (RTS3454), relative to untreated control cells) was 97% and the “% inhibition” value (Table 22 experiment, HepaRG cells, electroporation with 1,000 nM antisense oligonucleotide, approx. 24 hours, PKK mRNA by RT-PCR (RTS3454), relative to untreated control cells) was 90%.

“548563 (antisense eA*eA*kA*d[5mC]*d[5mC]*dA*dT*dG*dA*dA*dT*dT*dA*kG*kG*eT) [compound 548563]” was tested, and the “% inhibition” value [7] was 20%.

For “548565 (antisense eG*eG*k[5mC]*dA*dT*dT*dA*dG*dG*dA*dT*dA*dG*kG*k[5mC]*eA) [compound 548565]”, the “% inhibition” value [7] was 63%.

In the case of “548222 (eA*eA*kT*d[5mC]*dA*dT*dG*d[5mC]*d[5mC]*dT*dT*dG*dT*kG*kG*eG; antisense) [compound 548222]”, the “% inhibition” value [2] is reported as 32%.

“548239 (eT*eA*k[5mC]*dT*d[5mC]*dG*d[5mC]*d[5mC]*dT*dT*dT*dG*dT*kG*kA*e[5mC]; antisense) [compound 548239]” was tested, and the “% inhibition” value [1] was 18%.

In the case of “548567 (antisense eA*eG*kA*dT*d[5mC]*d[5mC]*dG*dG*dA*dA*dT*dA*dA*k[5mC]*k[5mC]*eA) [compound 548567]”, the “% inhibition” value [7] is reported as 67%.

“548081 (e[5mC]*e[5mC]*k[5mC]*d[5mC]*dT*dT*d[5mC]*dT*dT*dT*dA*dT*dA*kG*k[5mC]*e[5mC]; antisense) [compound 548081]” was tested, and the “% inhibition” value [11] was 64%.

— patent US11840686B2, “Modulation of prekallikrein (PKK) expression” (Ionis Pharmaceuticals, Inc., priority 2013, dated 2023)
